Experiment [1] in a line: ApoB secretion inhibition in hepatoma cells – cell-based, HepG2, ELISA, plate reader, cherry-pick, orthogonal assay for Trib1 inducer project, dose response (AID 1053151). Conditions: HepG2 secreted ApoB ELISA, 24 h, ApoB inhibition at active concentration, stronger effect = higher value.
Experiment [2] has as its system HepG2 secreted ApoB ELISA, 24 h. The experiment is described as above.

Molecules are shown by their SMILES.

Usually inhibition stands for the change of the read-out against control, counted positive when it falls.

As for `CN1C(=O)c2cc(NC(=O)c3ccc(C(F)(F)F)cc3)ccc2OC[C@@H]2O[C@H](CC(=O)NC3Cc4ccccc4C3)CC[C@@H]21`, in experiment [1] (at 0.02 µM), the inhibition was determined as 99%. Also, the active concentration (lower = more potent) in experiment [2] is 20 nM.

In experiment [1] (at 3.5 µM), `CN1C(=O)c2cc(NC(=O)c3ccc(C(F)(F)F)cc3)ccc2OC[C@@H]2O[C@@H](CC(=O)NC3Cc4ccccc4C3)CC[C@@H]21` had an inhibition of 90%. Moreover, the active concentration (lower = more potent) in experiment [2] is 3500 nM.
